Columns and labels:
WILLMS SOYBEANS = assay: Test D; assay type: in vivo, Glycine max
LADY SMARTWEED = assay: Test D; assay type: in vivo, Polygonum persicaris
Experimental: (§1) The Corn and Sorghum Herbicide Test included the following species in both the preemergence and postemergence evaluations:
(§2) Postemergence plantings were grown in Sassafras sandy loam soil. Corn and soybeans were grown in separate 25 cm diameter containers. Sorghum and the seven grass weed species were grown in two 18 cm diameter containers, 4 species per container. The seven broadleaf weed species were also grown in two 18 cm diameter containers, 4 species in one container, 3 species in the second container. One additional planting of corn in an 18 cm diameter container was made. The soil surface of this additional container of corn was covered with the absorbent, perlite, before spray treatment so that test chemicals would enter the plant only via the foliage. The plants were grown 10-21 days, dependent upon the species and then sprayed postemergence with the test chemicals dissolved in a nonpytotoxic solvent.
Preemergence plantings were grown in fertilized Tama silt loam soil. These plantings are identical to those described in the postemergence section, with the exception of the corn planting having perlite covering the soil surface. These plantings were made the day of or the day before spraying the test chemicals dissolved in a nonphytotoxic solvent.
(§3) Treated plants and controls were maintained in the greenhouse for 2 to 4 weeks. Visual planting response ratings were made on a percentage scale of 0 to 100 in comparison with a control where 0=no injury, and 100=death.

REDROOT PIGWEED = assay: Test D; assay type: in vivo, Amaranthus retroflexus
PERLITE CORN = assay: Test D, soil covered with perlite; assay type: in vivo, Zea mays
Experimental: as §1, §2, §3

Measured: plant response

C=C(c1ccccc1Cl)C(O)(Cn1cncn1)c1ccc(Cl)cc1Cl (stereo not drawn) [Example 33, 2-(2,4-Dichlorophenyl)-3-(2-chlorophenyl)-1-(1H-1,2,4-triazol-1-yl)-3-buten-2-ol]
0%: WILLMS SOYBEANS; POSTEMERGENCE 0250 GM/HA | WILLMS SOYBEANS; POSTEMERGENCE 0500 GM/HA | WILLMS SOYBEANS; POSTEMERGENCE 1000 GM/HA | WILLMS SOYBEANS; PREEMERGENCE 0250 GM/HA | WILLMS SOYBEANS; PREEMERGENCE 0500 GM/HA | WILLMS SOYBEANS; PREEMERGENCE 1000 GM/HA | LADY SMARTWEED; POSTEMERGENCE 0250 GM/HA | LADY SMARTWEED; POSTEMERGENCE 0500 GM/HA | LADY SMARTWEED; POSTEMERGENCE 1000 GM/HA | LADY SMARTWEED; PREEMERGENCE 0250 GM/HA | LADY SMARTWEED; PREEMERGENCE 0500 GM/HA | LADY SMARTWEED; PREEMERGENCE 1000 GM/HA | REDROOT PIGWEED; POSTEMERGENCE 0250 GM/HA | REDROOT PIGWEED; POSTEMERGENCE 0500 GM/HA | REDROOT PIGWEED; POSTEMERGENCE 1000 GM/HA | REDROOT PIGWEED; PREEMERGENCE 0250 GM/HA | REDROOT PIGWEED; PREEMERGENCE 0500 GM/HA | REDROOT PIGWEED; PREEMERGENCE 1000 GM/HA | PERLITE CORN; POSTEMERGENCE 0250 GM/HA | PERLITE CORN; POSTEMERGENCE 0500 GM/HA | PERLITE CORN; POSTEMERGENCE 1000 GM/HA

Source: patent publication US4965280A, “Antifungal carbinols” (E. I. Du Pont de Nemours and Company, priority 1989, dated 1990)
